According to patent US12622859B2, “Organic compounds” (GIVAUDAN SA, priority 2017, dated 2026):

Experiments:
[1] = Solubility in water; format: physicochemical
Excerpt: (§1) Consequently, the extract is preferably obtained by extracting the compounds from plant material using an alcohol, and more particularly ethanol. It is particularly preferred if the alcohol is water-free.

[2] = Stability in water; format: physicochemical
Excerpt: as §1

In the case of `C[C@@H]1O[C@@H](O[C@@H]2[C@H]3O[C@@H](c4ccc(O)c(O)c4)CO[C@@H]3O[C@H](CO)[C@H]2OC(=O)/C=C/c2ccc(O)c(O)c2)[C@H](O)[C@H](O)[C@H]1O` [crenatoside], the solubility in water [1] is reported as “water-soluble” and the stability in water [2] is reported as “unstable in water”.

With `C[C@@H]1O[C@@H](O[C@@H]2[C@@H](O)[C@H](OCCc3ccc(O)c(O)c3)O[C@H](CO)[C@H]2OC(=O)/C=C/c2ccc(O)c(O)c2)[C@H](O)[C@H](O)[C@H]1O` [acteoside] the solubility in water [1] was “water-soluble” and the stability in water [2] was “unstable in water”.
